Where two headings read alike, the source gives them in different places. Where a SMILES comes first, the peptide text is derived from it. Where no end group is shown, it is not given here. [ ]: non-standard residue; d: D form. The star is where a group is joined. FITC = O=C1OC2(c3ccc(O)cc3Oc3cc(O)ccc32)c2ccc(NC(=S)*)cc21; Hyp = O=C(O)[C@@H]1C[C@@H](O)CN1; Ahx = NCCCCCC(=O)O

The text below walks through data of paper PMC8466238, “Development of High Affinity Calcitonin Analog Fragments Targeting Extracellular Domains of Calcitonin Family Receptors” (Biomolecules, 2021).

In assay [1] the target is T1, AMY receptor 2 ECD (RAMP2-CTR ECD fusion protein) (Homo sapiens, UniProt O60895+P30988).
T1 construct: pHLsec/hRAMP2.55–140-(GSA)3-hCTR.34–141-H6 (H-pSL006); H6 (His6) (C); made in house; host or cells: HEK293T
Description: FP competition peptide binding assay with AMY receptor 2 ECD, FITC-AC413(6–25) Y25P probe. The conditions noted are these: Figure 5f; RAMP2-CTR ECD fusion protein 67 nM, FITC-AC413(6–25) Y25P 10 nM; mean ± SD of N = 3; read-out: pKI Mean ± SD (converted). From the text: (§1) The overall procedures of FP peptide binding assay with receptor ECDs and FITC-labeled peptide probes were previously described. […] A SpectraiD5 (Molecular Devices, San Jose, CA, USA) was used to measure fluorescence polarization/anisotropy. Background (reaction buffer only) was subtracted for anisotropy calculation. For the SpectraiD5, G factor (0.38 for FITC-sCT(22–32) and 0.41 for FITC-AC413(6–25) and FITC-AC413(6–25) Y25P) was used to correct the instrumental bias for anisotropy calculation. The polarization (mP) of the FITC-peptide probes only (No receptor ECD) was set close to 50 mP. For the saturation binding assay, the anisotropy values were re-calculated when total fluorescence intensity was changed by more than 10% as previously described. […] Anisotropy values were used to produce non-linear regression curves with PRISM 5.0 (GraphPad software, San Diego, CA, USA) as previously described. KI indicates affinity values obtained from competition binding assay and it was calculated from the non-linear regression curves of anisotropy by using equations previously described. Concentrations of the FITC-labeled peptide and the total receptor protein and the affinity of the FITC-labeled peptide for the receptor protein were incorporated into the equations for the KI calculation of the competitive peptide ligand. Two technical replicates were used for each receptor concentration in the peptide-binding curve. SEM of the anisotropy values of the two replicates at each receptor concentration were presented as error bars in the representative peptide-binding curves. When the error bars were shorter than the height of the symbol, they were omitted in the representative curves. At least three independent peptide binding experiments were performed to obtain three independent peptide-binding curves. Mean and standard deviation of peptide ligand affinity were calculated from them.

The target in assay [2] is T2, AMY receptor 3 ECD (RAMP3-CTR ECD fusion protein) (Homo sapiens, UniProt O60896+P30988).
T2 construct: pHLsec/hRAMP3.25–112-(GSA)3-hCTR.34–141-H6 (H-pSL001); H6 (His6) (C); made in house; host or cells: HEK293S GnTI−
T2 sequence (O60896+P30988 with tags, fused parts or gaps): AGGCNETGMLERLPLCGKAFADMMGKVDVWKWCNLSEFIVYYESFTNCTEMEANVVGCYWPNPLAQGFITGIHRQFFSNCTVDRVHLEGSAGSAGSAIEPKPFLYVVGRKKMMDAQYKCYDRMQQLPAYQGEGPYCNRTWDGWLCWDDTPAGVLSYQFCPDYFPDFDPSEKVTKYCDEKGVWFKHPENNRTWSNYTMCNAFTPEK
Description: FP competition peptide binding assay with AMY receptor 3 ECD, FITC-AC413(6–25) Y25P probe. The conditions noted are these: Figure 5g; RAMP3-CTR ECD fusion protein 252 nM, FITC-AC413(6–25) Y25P 10 nM; mean ± SD of N = 3; read-out: pKI Mean ± SD (converted).
From the text: as §1

Another assay concerns the target T3, CTR ECD (Homo sapiens, UniProt P30988).
T3 construct: pHLsec/hCTR.34–141-H6 (H-pSL003); H6 (His6) (C); made in house; host or cells: HEK293T
T3 sequence (P30988 34-141): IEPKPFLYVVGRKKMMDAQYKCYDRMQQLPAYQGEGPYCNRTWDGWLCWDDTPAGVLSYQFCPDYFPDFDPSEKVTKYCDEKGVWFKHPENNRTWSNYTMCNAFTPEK
Description: FP competition peptide binding assay with purified CTR ECD, FITC-sCT(22–32) probe. The note with it: CTR ECD 500 nM, FITC-sCT(22–32) 10 nM.
From the text: as §1

Assay [3] concerns the target T4, AMY receptor 1 ECD (RAMP1-CTR ECD fusion protein) (Homo sapiens, UniProt O60894+P30988).
T4 construct: pHLsec/hRAMP1.24–111-(GSA)3-hCTR.34–141-H6 (H-pSL005); H6 (His6) (C); made in house; host or cells: HEK293T
Description: FP competition peptide binding assay with AMY receptor 1 ECD, FITC-AC413(6–25) Y25P probe. The note with it: Figure 5e; RAMP1-CTR ECD fusion protein 77 nM, FITC-AC413(6–25) Y25P 10 nM; mean ± SD of N = 3; read-out: pKI Mean ± SD (converted).
From the text: as §1

The subject of assay [4] is RAMP3-CTR ECD fusion protein. Description: FP peptide binding assay of FITC-labeled probes with CTR ECD alone and RAMP3-CTR ECD fusion protein (Figure S1D). Also noted: species or system human. The conditions noted are these: FP binding with rising receptor ECD concentration. The procedure: HEK293S GnTI^− cells were used to express the RAMP3-CTR ECD fusion protein. The general procedures of receptor ECD expression and purification from HEK293S GnTI^− cells were previously described. HEK293S GnTI^− cells were transiently transfected with the DNA expression vector (H-pSL001) using polyethylenimine (PEI) at 1:1.5 ratio (DNA:PEI, w/w). Transfected cells were incubated for 4 days at 37 °C. All protein purification was performed at 4 °C unless otherwise noted. Cell culture media were collected and dialyzed to dialysis buffer overnight. The next day, dialyzed cell culture media were loaded to IMAC chromatography. Peak fractions from IMAC chromatography were spin-concentrated (MWCO 10 kDa) and injected into SEC. […]
The overall procedures of FP peptide binding assay with receptor ECDs and FITC-labeled peptide probes were previously described. […] A SpectraiD5 (Molecular Devices, San Jose, CA, USA) was used to measure fluorescence polarization/anisotropy. […] For the saturation binding assay, the anisotropy values were re-calculated when total fluorescence intensity was changed by more than 10% as previously described. However, effects of fluorescence intensity changes on the affinity values (KI) obtained from the competition binding assay was reported to be minimum and re-calculation of anisotropy was not applied. […] Mean and standard deviation of peptide ligand affinity were calculated from them. […]

For assay [5], the target named is T5, FITC-labeled AC413(6–25) with Y25P mutation (Y25P (stands in the printed letters), FITC-(Ahx) (aminohexanoic acid) on the N-terminus; C-terminal amide).
T5 construct: residues 6-25 of AC413, an antagonistic amylin peptide analog, with Y25P; peptide probe of the FP assay with the AMY receptor ECDs; also called FITC-AC413(6–25) Y25P; source: synthetic peptide (Genscript, HPLC-purified)
T5 peptide: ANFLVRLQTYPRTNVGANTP
Description: fluorescence polarisation; saturation binding: FITC-labeled peptide probe (10 nM) with rising receptor ECD concentrations; receptor ECD concentration at half of the maximal anisotropy. The conditions noted are these: both partners purified.

Setting [6] is: Figure 4b experiment set, mean ± SD of N = 3 (N = 4 for sCT(22–32)) independent experiments, read-out: pKI Mean ± SD (converted).
Where [7] appears, read: Figure 1d experiment set, mean ± SD of N = 3 independent experiments, pKI = –log10[KI] (M).

As to `C[C@@H](O)[C@H](NC(=O)[C@H](CC(=O)O)NC(=O)[C@@H](NC(=O)[C@H](CCCNC(=N)N)NC(=O)[C@@H]1CCCN1C(=O)[C@@H](N)Cc1ccc(O)cc1)[C@@H](C)O)C(=O)NCC(=O)N1CCC[C@H]1C(=O)NCC(=O)N[C@H](C(=O)N1C[C@H](O)C[C@H]1C(N)=O)[C@@H](C)O` [sCT(22–32) N26D/S29P/P32HYP] (H-YPRTDTGPGT[Hyp]-NH2), the Ki in assay [1] was 339 nM; in assay [2], 117 nM; on CTR ECD (setting [6]), 9.55e-08 M; in assay [3], 123 nM.

For `C[C@@H](O)[C@H](NC(=O)[C@H](CC(N)=O)NC(=O)[C@@H](NC(=O)[C@H](CCCNC(=N)N)NC(=O)[C@@H]1CCCN1C(=O)[C@@H](N)Cc1ccc(O)cc1)[C@@H](C)O)C(=O)NCC(=O)N[C@@H](CO)C(=O)NCC(=O)N[C@H](C(=O)N1C[C@H](O)C[C@H]1C(N)=O)[C@@H](C)O` [sCT(22–32) P32HYP] (H-YPRTNTGSGT[Hyp]-NH2), the Ki was 1410 nM in assay [1], 1000 nM in assay [2], 8.91e-07 M at CTR ECD (setting [6]) and 891 nM in assay [3].

Take YPRTDTGPGTP-NH2 [sCT(22–32) N26D/S29P]: the Ki in assay [1] was 468 nM; in assay [2] it was 331 nM; at CTR ECD (Figure 3b experiment set, mean ± SD of N = 3 independent experiments, read-out: pKI Mean ± SD (converted)), 2.4e-07 M; on CTR ECD (setting [7]), 3.16e-07 M; in assay [3], 380 nM.

As to “YPRTNTGSGTP-NH2 [sCT(22–32), reference compound]”, the Ki in assay [1] was 2820 nM; in assay [2], 2570 nM; at CTR ECD (setting [6]), 2.04e-06 M; on CTR ECD (setting [7]), 1.78e-06 M; in assay [3], 2570 nM.

Take “{FITC-Ahx}-ANFLVRLQTYPRTNVGANTP-NH2 [FITC-AC413(6–25) Y25P, FITC-labeled AC413(6–25) with Y25P mutation, probe for AMY receptor ECDs]”: the “affinity for the RAMP3-CTR ECD fusion protein compared to FITC-labeled AC413(6–25)” value in assay [4] is on record as “great affinity increase”.

Regarding “{FITC-Ahx}-ANFLVRLQTYPRTNVGANTY-NH2 [FITC-AC413(6–25), FITC-labeled fragment of the antagonistic amylin analog AC413, peptide probe]”, the “binding for the RAMP3-CTR ECD fusion protein over CTR ECD alone” value in assay [4] is given as “selective binding”.

B1: RAMP3-CTR ECD fusion protein (hRAMP3.25–112-(GSA)3-hCTR.34–141-H6) (receptor, human)
chain: AGGCNETGMLERLPLCGKAFADMMGKVDVWKWCNLSEFIVYYESFTNCTEMEANVVGCYWPNPLAQGFITGIHRQFFSNCTVDRVHLEGSAGSAGSAIEPKPFLYVVGRKKMMDAQYKCYDRMQQLPAYQGEGPYCNRTWDGWLCWDDTPAGVLSYQFCPDYFPDFDPSEKVTKYCDEKGVWFKHPENNRTWSNYTMCNAFTPEK
notes: human receptor activity-modifying protein 3 (RAMP3), extracellular domain, residues 25-112; linker, printed as (GSA)3; human calcitonin receptor (CTR), extracellular domain, residues 34-141; Secreted from a pHLsec-based vector; also called AMY receptor 3 ECD; RAMP3 ECD-CTR ECD fusion protein; source: HEK293S GnTI-, transiently transfected (PEI), secreted to cell culture media, purified (IMAC, SEC)
Consider B1, for which the “receptor ECD concentration that produced a half of the maximal anisotropy with the peptide probe” value in assay [5] turned out to be 252 nM.

B2: RAMP1-CTR ECD fusion protein (hRAMP1.24–111-(GSA)3-hCTR.34–141-H6) (receptor, human)
chain: TTACQEANYGALLRELCLTQFQVDMEAVGETLWCDWGRTIRSYRELADCTWHMAEKLGCFWPNAEVDRFFLAVHGRYFRSCPISGRAVGSAGSAGSAIEPKPFLYVVGRKKMMDAQYKCYDRMQQLPAYQGEGPYCNRTWDGWLCWDDTPAGVLSYQFCPDYFPDFDPSEKVTKYCDEKGVWFKHPENNRTWSNYTMCNAFTPEK
notes: human receptor activity-modifying protein 1 (RAMP1), extracellular domain, residues 24-111; linker, printed as (GSA)3; human calcitonin receptor (CTR), extracellular domain, residues 34-141; Secreted from a pHLsec-based vector; also called AMY receptor 1 ECD; RAMP1 ECD-CTR ECD fusion; source: HEK293T, transiently transfected, secreted to cell culture media, purified (IMAC, SEC)
Take B2: in assay [5], the “receptor ECD concentration that produced a half of the maximal anisotropy with the peptide probe” value stood at 77 nM.

B3: RAMP2-CTR ECD fusion protein (hRAMP2.55–140-(GSA)3-hCTR.34–141-H6) (receptor, human)
chain: GGTVKNYETAVQFCWNHYKDQMDPIEKDWCDWAMISRPYSTLRDCLEHFAELFDLGFPNPLAERIIFETHQIHFANCSLVQPTFSDGSAGSAGSAIEPKPFLYVVGRKKMMDAQYKCYDRMQQLPAYQGEGPYCNRTWDGWLCWDDTPAGVLSYQFCPDYFPDFDPSEKVTKYCDEKGVWFKHPENNRTWSNYTMCNAFTPEK
notes: human receptor activity-modifying protein 2 (RAMP2), extracellular domain, residues 55-140; linker, printed as (GSA)3; human calcitonin receptor (CTR), extracellular domain, residues 34-141; Secreted from a pHLsec-based vector; also called AMY receptor 2 ECD; RAMP2 ECD-CTR ECD fusion; source: HEK293T, transiently transfected, secreted to cell culture media, purified (IMAC, SEC)
Take B3: the “receptor ECD concentration that produced a half of the maximal anisotropy with the peptide probe” value in assay [5] was 67 nM.
